The values below come from ChEMBL document CHEMBL1201862, “PubChem BioAssay data set” (2004).

One series relates to HeLa. Nature of the series: ATP-based viability loss in HeLa cells – cell-based, CellTiter-Glo luminescence, cherry-pick samples, cytotoxicity control for MITF activator project, dose response (AID 540259). It counts as functional. Conditions: Homo sapiens.
Series [1] has as its target T1, Cytochrome P450 2C9 (Homo sapiens, UniProt P11712).
In the next series the target is Cytochrome P450 3A4 (Homo sapiens, UniProt P08684).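 Note: CYP3A4 tested as one member of a cytochrome P450 panel screen.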
Sequence of Cytochrome P450 3A4 (P08684 whole entry): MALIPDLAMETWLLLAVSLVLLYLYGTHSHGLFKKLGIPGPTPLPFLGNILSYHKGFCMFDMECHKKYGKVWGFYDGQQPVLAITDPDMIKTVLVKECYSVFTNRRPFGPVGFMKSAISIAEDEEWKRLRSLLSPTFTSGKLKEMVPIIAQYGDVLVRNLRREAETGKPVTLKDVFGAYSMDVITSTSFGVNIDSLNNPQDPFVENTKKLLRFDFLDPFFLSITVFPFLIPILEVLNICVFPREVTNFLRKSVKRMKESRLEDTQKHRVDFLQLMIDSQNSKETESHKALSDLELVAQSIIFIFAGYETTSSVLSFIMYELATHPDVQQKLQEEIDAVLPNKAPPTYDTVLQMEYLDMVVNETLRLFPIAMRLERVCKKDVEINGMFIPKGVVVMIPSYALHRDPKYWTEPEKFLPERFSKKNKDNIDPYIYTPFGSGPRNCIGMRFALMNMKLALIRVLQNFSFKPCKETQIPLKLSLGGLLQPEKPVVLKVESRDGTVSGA
Series [2] addresses Glucose-6-phosphate 1-dehydrogenase (Homo sapiens, UniProt P11413). Put plainly: inhibition of Homo sapiens G6PD, dose series – biochemical, fluorescence, selectivity assay for P. falciparum G6PD inhibitor project, dose response (AID 504792). It counts as functional.
In series [3] the target is T1, Cytochrome P450 2C9. This is another data set of the same source.
In another series the target is T2, Cytochrome P450 1A2 (Homo sapiens, UniProt P05177).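 Note: PubChem cytochrome P450 panel assay, CYP1A2 panel member.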
T2 sequence (P05177 whole entry): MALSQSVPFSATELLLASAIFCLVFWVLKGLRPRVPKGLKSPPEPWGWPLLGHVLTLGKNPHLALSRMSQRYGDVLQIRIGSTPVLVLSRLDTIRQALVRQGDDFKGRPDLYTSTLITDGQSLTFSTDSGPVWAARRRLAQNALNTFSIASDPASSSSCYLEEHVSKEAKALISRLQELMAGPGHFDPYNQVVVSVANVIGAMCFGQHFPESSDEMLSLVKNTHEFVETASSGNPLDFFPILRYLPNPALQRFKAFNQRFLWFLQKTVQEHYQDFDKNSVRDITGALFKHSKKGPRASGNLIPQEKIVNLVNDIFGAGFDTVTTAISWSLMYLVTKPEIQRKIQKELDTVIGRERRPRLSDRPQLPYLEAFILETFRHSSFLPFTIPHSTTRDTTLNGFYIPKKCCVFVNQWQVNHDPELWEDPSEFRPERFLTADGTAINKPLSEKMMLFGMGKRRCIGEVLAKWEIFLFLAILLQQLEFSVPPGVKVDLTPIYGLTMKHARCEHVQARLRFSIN

In the next series the target is Cytochrome P450 2D6 (Homo sapiens, UniProt P10635).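 Note: CYP2D6 member of a cytochrome P450 panel assay.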
Sequence of Cytochrome P450 2D6 (P10635 whole entry): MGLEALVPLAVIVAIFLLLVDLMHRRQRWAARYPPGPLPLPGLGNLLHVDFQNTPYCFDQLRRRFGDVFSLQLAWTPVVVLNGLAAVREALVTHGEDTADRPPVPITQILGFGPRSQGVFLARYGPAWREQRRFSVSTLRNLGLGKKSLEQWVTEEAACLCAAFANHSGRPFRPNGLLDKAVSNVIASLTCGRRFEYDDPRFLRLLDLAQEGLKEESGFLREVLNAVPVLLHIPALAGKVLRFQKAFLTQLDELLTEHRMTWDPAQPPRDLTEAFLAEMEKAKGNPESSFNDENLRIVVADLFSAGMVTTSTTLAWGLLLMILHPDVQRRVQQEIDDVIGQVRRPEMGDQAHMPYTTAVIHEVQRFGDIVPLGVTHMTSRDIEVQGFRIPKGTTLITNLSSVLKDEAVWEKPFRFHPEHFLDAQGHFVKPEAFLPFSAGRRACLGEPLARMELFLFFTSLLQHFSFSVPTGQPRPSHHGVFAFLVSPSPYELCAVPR
The target of a further series is Cytochrome P450 2C19 (Homo sapiens, UniProt P33261). Put plainly: Cytochrome panel assay with activity outcomes. Panel member name: p450-cyp2c19 Compounds with AC50 equal or less than 10 uM are considered active. It counts as functional.
Sequence of Cytochrome P450 2C19 (P33261 whole entry): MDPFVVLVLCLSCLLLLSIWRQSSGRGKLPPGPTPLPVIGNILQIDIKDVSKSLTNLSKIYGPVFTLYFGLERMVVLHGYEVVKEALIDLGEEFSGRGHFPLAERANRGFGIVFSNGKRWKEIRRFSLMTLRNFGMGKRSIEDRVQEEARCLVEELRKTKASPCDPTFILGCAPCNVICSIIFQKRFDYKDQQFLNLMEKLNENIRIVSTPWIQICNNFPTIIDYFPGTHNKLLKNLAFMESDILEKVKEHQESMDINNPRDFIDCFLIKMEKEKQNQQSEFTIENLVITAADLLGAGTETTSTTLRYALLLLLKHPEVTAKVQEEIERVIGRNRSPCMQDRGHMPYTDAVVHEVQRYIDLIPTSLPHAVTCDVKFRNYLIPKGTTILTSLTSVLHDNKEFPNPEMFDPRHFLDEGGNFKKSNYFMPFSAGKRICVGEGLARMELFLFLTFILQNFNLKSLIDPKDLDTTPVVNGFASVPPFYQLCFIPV
The target of another series is T3, Estrogen receptor (Homo sapiens, UniProt P03372).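 Note: potency for inhibiting coactivator peptide recruitment to the receptor.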
T3 sequence (P03372 whole entry): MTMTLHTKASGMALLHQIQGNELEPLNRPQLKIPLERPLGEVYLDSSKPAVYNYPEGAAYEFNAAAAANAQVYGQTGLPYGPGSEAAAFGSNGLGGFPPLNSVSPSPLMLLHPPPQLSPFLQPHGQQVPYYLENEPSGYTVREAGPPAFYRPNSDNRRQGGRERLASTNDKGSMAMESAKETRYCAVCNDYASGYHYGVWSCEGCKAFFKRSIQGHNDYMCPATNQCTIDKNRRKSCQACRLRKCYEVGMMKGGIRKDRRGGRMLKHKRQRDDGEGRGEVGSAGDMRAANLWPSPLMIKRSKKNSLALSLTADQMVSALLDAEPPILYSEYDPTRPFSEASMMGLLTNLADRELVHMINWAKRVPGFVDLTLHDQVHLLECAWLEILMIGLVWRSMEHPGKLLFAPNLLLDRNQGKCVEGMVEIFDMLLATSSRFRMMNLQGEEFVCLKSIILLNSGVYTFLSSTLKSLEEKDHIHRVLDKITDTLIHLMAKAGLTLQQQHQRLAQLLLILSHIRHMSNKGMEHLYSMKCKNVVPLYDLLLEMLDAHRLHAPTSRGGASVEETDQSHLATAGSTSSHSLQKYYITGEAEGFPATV

A further series has as its system Escherichia coli. Nature of the series: microbe, parasite or virus in culture.
The test system of the next series is INS1. Nature of the series: INS-1E survival protection against cytokine death – cell-based, luminescence, retest, dose response (AID 449756).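 Note: cell death triggered by IL-1 beta plus TNF-alpha plus IFN-gamma mixture; protective hits raise ATP signal compared with cytokine alone wells.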 It counts as functional. Conditions: Rattus norvegicus.
For series [4], the system named is Streptococcus sp. 'group A'. Put plainly: Streptococcus pyogenes SK(-)GAS viability under kanamycin – luminescence, BacTiterGlo, confirmation, counter-screen for streptokinase expression inhibitor project, dose response (AID 1900). It counts as functional, organism-based. (In general: Counterscreens check selectivity or assay interference.)
The nature of series [5]: NIH3T3 cell viability loss – ATP luminescence, mouse fibroblasts, counter-screen, dose response (AID 2010).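 Note: cells exposed to compound for about 90 hours before reading.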 It counts as functional, cell-based.
A short description of series [6]: Trypanosoma cruzi growth suppression in host cells – NIH3T3 host cells, beta-gal luminescence, confirmation (AID 2044).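 Note: intracellular parasites grown in NIH/3T3 mouse fibroblasts as host cells; luminescent beta-galactosidase reporter signal from transgenic T. cruzi replicating inside host cells; inhibitors lower the luminescence signal.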 It counts as functional, cell-based.
In a further series the test system is Streptococcus. Put plainly: GAS UMAA2166 growth inhibition – luminescence, BacTiterGlo, counter-screen for streptokinase expression inhibitor project, dose response (AID 1915).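 Note: potency for reduction of bacterial viability or growth.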 It counts as functional, organism-based.
For another series, the system named is Vero. Put plainly: cells. It counts as functional. Conditions: Chlorocebus sabaeus.
Series [7] can be described thus: Luminescence Cell-Based Dose Retest to Confirm Inhibitors of Cancer Stem Cells. [Related pubchem assays (depositor defined):AID2717, AID2721]. It counts as functional. The conditions noted are these: Homo sapiens.
A further series concerns the target T4, Streptokinase A (Streptococcus pyogenes serotype M1, UniProt P10520).
T4 sequence (P10520 whole entry): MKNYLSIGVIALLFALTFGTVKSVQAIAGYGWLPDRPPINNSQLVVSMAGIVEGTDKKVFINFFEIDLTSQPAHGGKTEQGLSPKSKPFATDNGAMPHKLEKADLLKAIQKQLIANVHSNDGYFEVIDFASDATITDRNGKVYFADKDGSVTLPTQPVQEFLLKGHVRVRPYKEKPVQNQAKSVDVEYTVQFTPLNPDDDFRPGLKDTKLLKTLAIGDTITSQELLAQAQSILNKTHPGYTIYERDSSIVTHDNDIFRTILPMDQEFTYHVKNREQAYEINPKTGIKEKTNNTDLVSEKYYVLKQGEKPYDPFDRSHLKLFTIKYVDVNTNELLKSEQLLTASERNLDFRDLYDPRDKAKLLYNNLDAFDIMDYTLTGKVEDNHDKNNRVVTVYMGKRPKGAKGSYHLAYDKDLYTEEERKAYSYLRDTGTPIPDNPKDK
Nature of the series: viability-normalized secreted streptokinase activity reduction – plasminogen activation absorbance, OD405, dose response (AID 1914).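 Note: secreted streptokinase activity via plasminogen activation per viability signal from cell pellet.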 It counts as functional, Streptococcus pyogenes M1 GAS.

In series [8] the test system is HEK293. Put plainly: cells. The conditions noted are these: Homo sapiens.
Series [9] has as its system HEK293. Nature of the series: cells. The conditions noted are these: Homo sapiens. The source holds these as a separate data set.
Series [10] deals with T5, Rac GTPase-activating protein 1 (Homo sapiens, UniProt Q9H0H5).
T5 sequence (Q9H0H5 whole entry): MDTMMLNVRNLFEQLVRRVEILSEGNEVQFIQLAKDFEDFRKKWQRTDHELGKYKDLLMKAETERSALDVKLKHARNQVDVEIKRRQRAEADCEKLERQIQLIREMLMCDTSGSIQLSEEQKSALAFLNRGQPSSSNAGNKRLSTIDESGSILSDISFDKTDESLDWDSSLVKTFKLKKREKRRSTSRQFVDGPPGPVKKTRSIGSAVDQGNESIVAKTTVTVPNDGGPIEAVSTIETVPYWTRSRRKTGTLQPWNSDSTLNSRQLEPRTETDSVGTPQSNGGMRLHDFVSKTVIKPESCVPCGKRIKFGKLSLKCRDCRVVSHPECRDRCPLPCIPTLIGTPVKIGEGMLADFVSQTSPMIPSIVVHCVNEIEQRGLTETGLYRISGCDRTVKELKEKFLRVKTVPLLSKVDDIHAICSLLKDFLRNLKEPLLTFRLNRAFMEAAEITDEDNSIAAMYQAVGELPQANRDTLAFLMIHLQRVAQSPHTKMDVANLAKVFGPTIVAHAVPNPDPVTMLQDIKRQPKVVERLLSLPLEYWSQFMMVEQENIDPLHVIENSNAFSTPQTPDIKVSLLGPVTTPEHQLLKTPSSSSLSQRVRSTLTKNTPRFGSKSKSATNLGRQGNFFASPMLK
Nature of the series: blockers of MgcRacGAP-driven Rac1 GTP hydrolysis – biochemical, ADP Hunter fluorescence, primary and confirmatory, confirmation (AID 624330). It counts as functional.

The target of a further series is Troponin, cardiac muscle (Homo sapiens, UniProt P19429+P45379+P63316). Nature of the series: Fluorescence-based biochemical high throughput dose response assay for activators of the calcium sensitivity of cardiac Regulated Thin Filaments (RTF). [Related pubchem assays (depositor defined):AID493008, AID493018, AID504382, AID504383]. It counts as protein-complex assay.

In series [11] the target is T6, Mannose-6-phosphate isomerase (Homo sapiens, UniProt P34949).
T6 sequence (P34949 whole entry): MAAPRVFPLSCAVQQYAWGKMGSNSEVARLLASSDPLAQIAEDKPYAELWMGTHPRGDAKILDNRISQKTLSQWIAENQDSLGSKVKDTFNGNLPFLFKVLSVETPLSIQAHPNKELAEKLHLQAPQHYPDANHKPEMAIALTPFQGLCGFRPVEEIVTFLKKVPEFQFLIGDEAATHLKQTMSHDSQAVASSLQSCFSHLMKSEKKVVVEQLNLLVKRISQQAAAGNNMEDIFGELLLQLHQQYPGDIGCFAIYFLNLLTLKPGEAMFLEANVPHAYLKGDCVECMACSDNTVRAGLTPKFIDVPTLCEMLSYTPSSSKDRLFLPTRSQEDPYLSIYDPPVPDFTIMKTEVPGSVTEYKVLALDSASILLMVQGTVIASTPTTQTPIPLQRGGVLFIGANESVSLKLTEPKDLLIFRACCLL
Put plainly: MPI inhibition at elevated mannose 6-phosphate – biochemical, fluorescence intensity, high mannose 6-phosphate, primary screen (AID 1220).

Structures are written as SMILES. Calls of active or inactive are those of the source.

T1 sequence (P11712 whole entry): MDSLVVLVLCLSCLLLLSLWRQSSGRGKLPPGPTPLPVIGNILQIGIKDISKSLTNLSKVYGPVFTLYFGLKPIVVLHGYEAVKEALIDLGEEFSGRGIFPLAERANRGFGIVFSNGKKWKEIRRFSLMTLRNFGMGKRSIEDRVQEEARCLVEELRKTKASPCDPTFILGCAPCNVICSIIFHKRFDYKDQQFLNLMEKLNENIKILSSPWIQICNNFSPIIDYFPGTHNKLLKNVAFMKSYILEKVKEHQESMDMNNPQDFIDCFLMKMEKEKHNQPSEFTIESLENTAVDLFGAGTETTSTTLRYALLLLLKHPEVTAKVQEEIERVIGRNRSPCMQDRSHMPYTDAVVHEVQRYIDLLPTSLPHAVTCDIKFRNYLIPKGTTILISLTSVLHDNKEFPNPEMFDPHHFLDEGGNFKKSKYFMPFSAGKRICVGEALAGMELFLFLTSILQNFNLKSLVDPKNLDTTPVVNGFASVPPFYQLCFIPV
Sequence of Glucose-6-phosphate 1-dehydrogenase (P11413 whole entry): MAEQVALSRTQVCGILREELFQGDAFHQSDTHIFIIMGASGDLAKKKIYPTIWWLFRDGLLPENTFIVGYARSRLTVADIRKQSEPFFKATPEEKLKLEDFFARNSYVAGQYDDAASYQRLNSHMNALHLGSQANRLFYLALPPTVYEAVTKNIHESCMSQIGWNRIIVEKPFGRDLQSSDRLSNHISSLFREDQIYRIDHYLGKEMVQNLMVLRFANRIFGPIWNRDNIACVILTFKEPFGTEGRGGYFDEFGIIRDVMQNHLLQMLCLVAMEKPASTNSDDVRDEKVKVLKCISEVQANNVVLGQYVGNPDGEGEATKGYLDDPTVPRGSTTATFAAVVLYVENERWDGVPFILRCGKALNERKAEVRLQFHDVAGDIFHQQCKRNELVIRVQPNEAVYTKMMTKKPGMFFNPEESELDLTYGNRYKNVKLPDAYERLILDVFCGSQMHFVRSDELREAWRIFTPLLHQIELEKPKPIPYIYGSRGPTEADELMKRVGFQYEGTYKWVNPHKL

As to `COc1ccc2nc3ccccc3nc2c1`, in the series on HeLa, the AC50 is 73.5 µM (active).
As to `CC1(C)CC(NC(=O)c2ccc3c(c2)OCO3)CC(C)(C)N1`, the AC50 at Cytochrome P450 2C9 [1] was 8.91 µM (inconclusive); at Cytochrome P450 3A4, “inconclusive”.
Regarding `CCNc1nc(NC(C)C)nc(NS(=O)(=O)c2ccc(Cl)cc2)n1`, the IC50 in series [2] was > 80 µM (inactive).
As for `CCCCCCCCCC[Si](C)(C)CCC(=O)N[C@@H](Cc1ccc(C)cc1)c1ccccc1`, the AC50 result at Cytochrome P450 2C9 [3] was “inconclusive”; on Cytochrome P450 1A2, 31.6 µM (inconclusive); at Cytochrome P450 2D6 it was 39.8 µM (inconclusive); at Cytochrome P450 2C19, “inconclusive”.
With `O=C1CC(c2ccc(F)cc2)Cc2nc(NCC3CCCO3)ncc21` (stereo not given), the AC50 result at Cytochrome P450 3A4 is “inconclusive”. For the same compound, the IC50 at Estrogen receptor is > 50 µM (not active).
Take `C[C@@H]1C(c2ccc(F)cc2)=NN(c2ccccc2)[C@H]1C(=O)N1CCOC1=O`: the AC50 with Escherichia coli is 33.5 µM (active).
With `CCCN1C(=O)C(=O)N(CC(=O)c2cc(C)n(C3CC3)c2C)C1=O`, in the series with HeLa, the AC50 is 62.6 µM (active).
In the case of `O=C1C=CC(=O)N1c1ccc(-c2nc3ccccc3o2)cc1`, the IC50 in series [2] was > 80 µM (inactive).
With `O=C(COC(=O)Cn1cnc2ccccc2c1=O)NCC12CC3CC(CC(C3)C1)C2`, the AC50 with Escherichia coli was 32.8 µM (active).
On to `COc1ccc(OC)c(S(=O)(=O)NCCc2ccccc2)c1`, for which the AC50 in the series on Escherichia coli is 28.4 µM (active).
As for `O=C(NCc1nc(-c2ccc(C(F)(F)F)cc2)no1)Nc1cc(Cl)cc(Cl)c1`, the AC50 in the series on INS1 is 7.49 µM (active); in series [7], 1.53 µM (active). The EC50 in [4] was 2.88 µM (active); in [5], 4.69 µM (active); in series [6], 2.43 µM (active); with Streptococcus it was 8.49 µM (active); at Streptokinase A it was > 150 µM (not active). Also, in the series on Vero, the CC50 was 8.95 µM (active).
On to `CCCC(C)Sc1nc2c(=S)n(C)c(=O)n(C)c2[nH]1` (stereo not given), for which the EC50 with HEK293 [8] and in the series on HEK293 [9] was > 59.7 µM (inactive) throughout.
In the case of `Cc1ccccc1-c1cc(N(C)C)ncn1`, the AC50 entry was “inconclusive” at Cytochrome P450 3A4 and 39.8 µM (inconclusive) on Cytochrome P450 2D6.
Turning to `CN1CCC(=NNC(=O)C(=O)Nc2cccc(Br)c2)CC1`, in the series on Escherichia coli, the AC50 was 65.2 µM (active).
`Cn1c(=O)c(-c2cccc(C#N)c2)nc2cnc(Oc3ccccc3)nc21`: on Cytochrome P450 3A4, the AC50 result was “inconclusive”.
`COc1ccc(NC(=O)c2ccc(-n3cccn3)nc2)c(OC)c1`: the results for the AC50 result at Cytochrome P450 2C9 [3], on Cytochrome P450 1A2 and on Cytochrome P450 2C19 (read-out: AC50) were “inconclusive”, 2.82 µM (inconclusive) and 14.1 µM (inconclusive), respectively.
Consider `COc1cc(N)c2ncccc2c1SC`, for which the IC50 in series [10] is 41.3 µM (active); in series [2] it was > 80 µM (inactive).
Regarding `C/C(NN1CCCCC1c1cccnc1)=C1/C(=O)NC(=S)N(C2CCCCC2)C1=O` (stereo not given), the EC50 in the series with HEK293 [8] is > 59.6 µM (inactive); in the series with HEK293 [9], > 59.6 µM (inactive); at Troponin, cardiac muscle, 14.9 µM (inactive).
On to `CCc1cc(-c2nnn(CCC3COCCO3)c2CC)ccc1-c1cn(Cc2ccccc2)nn1` (stereo not given), for which the CC50 with Vero is 23.7 µM (active).
On to `C=CCOc1ccc(CNc2ccc3[nH]c(O)nc3c2)cc1OC`, for which the values for the IC50 in series [11] and in [2] were > 50 µM (not active) and 53.4 µM (inactive), respectively.

Usually AC50 stands for the concentration giving half of the maximal activity seen. What is called IC50 is the concentration that gives 50% inhibition. As usually defined, the EC50 is the concentration at which the effect is half-maximal. The term CC50 denotes the concentration that lowers cell viability or growth by half.
